The source of these data is patent publication US12208108B2, “Drug targets of delayed aging and human brain diseases” (Texas Tech University System, priority 2016, dated 2025).

Assay [1] relates to SHSY5Y cells. Nature of the assay: Immunofluorescence analysis of Drp1, synaptophysin and PSD95. Format: cell-based, Human. As for the experimental part: Immunofluorescence analysis of Drp1, synaptophysin and PSD95. To determine the effect of Aβ and DDQ on Drp1, synaptophysin and PSD95 levels and localizations, immunofluorescence analysis was performed in cells treated as shown in FIG. 7.
Immunofluorescence analysis. To study immune-reactivity of proteins of interest, cells were grown on coverslips using regular cell culture medium and treated as shown in strategy FIG. 3 and performed immunofluorescence analysis using the antibodies in these treated and untreated cells as described by Manzcak et al. Cells were washed with warm PBS, fixed in freshly prepared 4% paraformaldehyde in PBS for 10 min, and then washed with PBS and permeabilized with 0.1% Triton-X100 in PBS. They were blocked with 1% blocking solution (Invitrogen) for 1 hr at room temperature. All neurons were incubated overnight with primary antibodies. The neurons were incubated with appropriate secondary antibodies. The cells were washed neurons 3 times with PBS, and slides were mounted. Photographs were taken with a multiphoton laser scanning microscope system (ZeissMeta LSM510). To quantify the immunoreactivity of proteins of interest, for each treatment 10-15 photographs were taken at ×20 magnification.

Assay [2] deals with SHSY5Y cells. The experiment in a line: Lipid peroxidation assay (HNE). Format: cell-based, Human. As for the experimental part:
Lipid peroxidation assay. Lipid peroxidates are unstable indicators of oxidative stress in neurons. 4-hydroxy-2-nonenol (HNE) is the final product of lipid peroxidation that was measured in the cell lysates from SHSY5Y cells of control and experimental treatments (n=4), using an HNE-His ELISA Kit (Cell BioLabs, Inc., San Diego, Calif.) as described in Manczak et al..

Assay [3] concerns SHSY5Y cells. The experiment in a line: H2O2 production (Amplex Red). In kind it is cell-based, Human. As for the experimental part:
Mitochondrial function assays. Hydrogen peroxide production. Using an Amplex® Red H2O2 Assay Kit (Molecular Probes, Eugene, Oreg.), the inventors measured the production of H2O2 in independent experiments (n=4) of SHSY5Y neurons treated 1) with and 2) without DDQ, DDQ treated and then incubated with Aβ, as described in Manczak et al..

The next assay relates to mutant APPSwe/Ind cells. Nature of the assay: Sandwich ELISA of Aβ40 and Aβ42. The settings on record: DDQ treated vs DDQ untreated mutant APPSwe/Ind cells, protein lysates. Format: cell-based, mouse. The text has this:
FIGS. 9A and 9B show sandwich ELISA analysis of Aβ40 and 42 in mutant APPSwe/Ind cells treated and untreated with DDQ. The inventors performed sandwich ELISA using protein lysates mutant APP cells treated and untreated with DDQ.
DDQ reduces soluble Aβ42 in mutant APPSwe/Ind cells treated with DDQ. To determine whether DDQ reduces Aβ levels, the inventors performed sandwich ELISA using protein lysates of mutant APPSwe/Ind cells treated with DDQ. […] These observations indicate that DDQ reduces Aβ42 levels in mutant APPSwe/Ind cells.
Mutant APPSwe/Ind cells: The inventors purchased mutant APPSwe cDNA clone (pCAX-APPSwe/Ind) from Addgene—https://www.addgene.org and verified expression of mutant APP APPSwe/Ind cDNA and further sub-cloned into a mammalian expression vector (Arubala P. Reddy—unpublished observations). The inventors transfected mutant APPSwe/Ind cDNA into mouse neuroblastoma (N2a) cells for 24 hrs and after transfection, cells were treated with DDQ (250 nM) for 24 hrs. The inventors harvested mutant APPSwe/Ind cells treated and untreated with DDQ and prepared protein lysates and performed co-immunoprecipitation using Aβ (6E10) antibody and conducted immunoblotting analysis with 6E10 and Drp1 antibodies.

The next assay addresses T1, GTPase-Drp1 (Homo sapiens, UniProt O00429).
T1 construct: endogenous in cells; host or cells: SHSY5Y human neuroblastoma cells
The experiment in a line: GTPase-Drp1 activity from Drp1 IP elutes. In kind it is cell-based. As for the experimental part: GTPase-Drp1 activity: To determine whether Aβ affects GTPase-Drp1 activity in cells that treated with Aβ incubation, the inventors measured GTPase-Drp1 activity from Drp1 IP elutes of all cell treatments.

The mark [4] stands for this setting: Aβ + DDQ (Aβ1-42 6 hrs, then DDQ 24 hrs) vs Aβ treated cells.
The mark [5] stands for this setting: DDQ 250 nM 24 hrs vs untreated cells.
Where [6] appears, read: DDQ + Aβ (DDQ 24 hrs, then Aβ1-42 6 hrs) vs Aβ treated cells.
Where [7] appears, read: Aβ + DDQ (Aβ1-42 20 μM 6 hrs, then DDQ 24 hrs) vs untreated cells.
Where [8] appears, read: Aβ + DDQ (Aβ1-42 6 hrs, then DDQ 24 hrs) vs cells incubated with Aβ.
The mark [9] stands for this setting: DDQ + Aβ (DDQ 24 hrs, then Aβ1-42 6 hrs) vs cells incubated with Aβ.

T1 sequence (O00429 whole entry): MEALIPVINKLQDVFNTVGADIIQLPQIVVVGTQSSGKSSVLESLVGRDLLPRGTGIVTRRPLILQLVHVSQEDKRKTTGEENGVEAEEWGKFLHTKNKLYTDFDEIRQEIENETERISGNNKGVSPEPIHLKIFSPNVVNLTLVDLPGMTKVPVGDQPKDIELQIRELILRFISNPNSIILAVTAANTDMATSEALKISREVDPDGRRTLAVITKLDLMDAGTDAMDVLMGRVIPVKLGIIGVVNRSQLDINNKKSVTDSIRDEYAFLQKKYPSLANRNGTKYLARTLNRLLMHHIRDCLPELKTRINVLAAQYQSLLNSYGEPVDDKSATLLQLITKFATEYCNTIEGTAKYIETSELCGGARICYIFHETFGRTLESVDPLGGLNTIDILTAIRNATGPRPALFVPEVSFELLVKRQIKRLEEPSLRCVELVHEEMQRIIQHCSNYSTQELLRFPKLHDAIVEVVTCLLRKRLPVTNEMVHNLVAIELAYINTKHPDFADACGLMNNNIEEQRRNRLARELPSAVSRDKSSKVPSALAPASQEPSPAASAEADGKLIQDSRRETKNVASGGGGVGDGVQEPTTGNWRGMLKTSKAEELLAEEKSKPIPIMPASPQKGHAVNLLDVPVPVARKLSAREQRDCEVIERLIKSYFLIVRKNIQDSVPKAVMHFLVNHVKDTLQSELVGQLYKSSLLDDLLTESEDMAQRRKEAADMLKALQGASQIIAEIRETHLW

With `CCOP(=O)(OCC)C(NCCc1ccc(O)c(O)c1)c1ccnc2ccccc12` (stereo not drawn) [DDQ, diethyl(3,4-dihydroxyphenethylamine)(quinolin-4-yl)methylphosphonate], the “Drp1 levels (immunofluorescence)” value in the assay with SHSY5Y cells [1] (setting [4]) is on record as “Significantly reduced levels”; with SHSY5Y cells [1] (setting [5]), “decreased Drp1 levels were found in DDQ treated cells relative to untreated cells, but this was not significant”; in the assay with SHSY5Y cells [1] (setting [6]), “Significantly reduced levels”. For the same molecule, the “PSD95 levels (immunofluorescence)” value in the assay with SHSY5Y cells [1] (setting [4]) and in the assay with SHSY5Y cells [1] (setting [6]) was “increased” each time. Also, the “synaptophysin levels (immunofluorescence)” value in the assay on SHSY5Y cells [1] (setting [4]) and in the assay on SHSY5Y cells [1] (setting [6]) was “increased” each time. Moreover, the “lipid peroxidation (4-hydroxy-nonenol) levels” value in the assay with SHSY5Y cells [2] (Aβ + DDQ (Aβ1-42 6 hrs, then DDQ 24 hrs) vs cells incubated with Aβ alone) is listed as “significantly reduced levels”; in the assay on SHSY5Y cells [2] (setting [5]) it was “significantly decreased levels”; with SHSY5Y cells [2] (DDQ + Aβ (DDQ 24 hrs, then Aβ1-42 6 hrs) vs cells incubated with Aβ alone), “significantly reduced levels”. The H2O2 levels result in the assay with SHSY5Y cells [3] (setting [7]) is given as “Significantly increased levels”; in the assay on SHSY5Y cells [3] (setting [8]), “significantly reduced”; in the assay on SHSY5Y cells [3] (setting [5]), “significantly decreased levels”; in the assay with SHSY5Y cells [3] (setting [9]), “significantly reduced”; in the assay on SHSY5Y cells [3] (DDQ + Aβ (DDQ 24 hrs, then Aβ1-42 6 hrs) vs untreated cells), “Significantly increased levels”. For the same molecule, in the assay on mutant APPSwe/Ind cells, the Aβ40 levels result is given as “significantly increased”. Besides, the Aβ42 levels result in the assay on mutant APPSwe/Ind cells is listed as “significantly decreased levels”. The GTPase-Drp1 activity entry at GTPase-Drp1 (setting [7]) is reported as “Significantly increased”; at GTPase-Drp1 (setting [8]) it was “reduced”; at GTPase-Drp1 (setting [5]) it was “decreased levels”; at GTPase-Drp1 (setting [9]), “reduced”.
